Measured values as given in patent US12370187B2, “Composition containing antitumor drug, and preparation method thereof and use thereof” (KUNSHAN XINYUNDA BIOTECH CO., LTD., priority 2021, dated 2025).
Counter-ions that a name gives are not always drawn. Like-named read-outs stand apart in the source and are kept apart here.

Legend:
human colon cancer HT-29 = experiment: Anti-colon cancer activity, subcutaneously implanted HT-29 (Example 23); type: in vivo, BALB/c nude mice; settings: Protocol I; 60 mg/kg iv
[1] = system: human colon cancer cell line HCT116; settings: for RTV / Tumor Weight: D 43
From the text: One week after the last dose, tumors were taken from all mice, weighed, and photographed.

[2] = system: human triple-negative breast cancer MDA-MB-231; experiment: Anti-breast tumor activity, subcutaneously implanted MDA-MB-231 (Example 22); type: in vivo, BALB/c nude mice; settings: Protocol I; 60 mg/kg iv
[3] = system: human colon cancer cell line SW620; settings: for RTV (D 41) / T/C (%) RTV / T/C (%) TW / Tumor Weight (mg) (D 41): D 41
[4] = system: human ovarian cancer cell line SKOV-3; settings: for RTV / Tumor Weight: D 42
From the text: SKOV-3 tumor masses were subcutaneously inoculated to 80 BALB/c nude mice.

[5] = system: human triple-negative breast cancer cell line MDA-MB-231; experiment: In vivo pharmacodynamic study on MDA-MB-231 tumor (Example 24); settings: for Body weight increase compared with before administration: mouse, in vivo
Experimental: One week after the last administration, tumors were taken from all the mice and weighed.
The clinical symptoms observed during the experiment were recorded in the raw data. Tumor volume was calculated by the following formula: […]
Relative tumor proliferation rate (T/C (%)) represents a ratio in percentage of relative tumor volumes or tumor weights of a treatment group and a control group at a time point, which was calculated by the following formula: […]
Relative tumor inhibition rate (TGI (%)) was calculated by the following formula: […]

[6] = system: human colon cancer cell line SW620; experiment: In vivo pharmacodynamic study in SW620 model (Example 34); settings: 60 mg/kg iv QW × 4
tumor cells = settings: Zhang et al. 2004; cited from earlier work
[7] = CPT-11 80 mg/kg iv QW × 4, 2 surviving animals

CCc1c2c(nc3ccc(OC(=O)N4CCC(N5CCCCC5)CC4)cc13)-c1cc3c(c(=O)n1C2)COC(=O)[C@]3(O)CC [CPT-11, irinotecan hydrochloride]
Tumor Inhibition Rate (human colon cancer HT-29): 47%
Reduction in body weight at the end of the experiment compared to before administration ([1]; CPT-11 60 mg/kg): 14.41%
T/C (%) RTV ([1]; CPT-11 60 mg/kg iv QW × 4): 35%
T/C (%) TW ([1]; CPT-11 60 mg/kg iv QW × 4): 26%
RTV ([1]; CPT-11 60 mg/kg iv QW × 4): 4.42 ± 1.05
Tumor Weight ([1]; CPT-11 60 mg/kg iv QW × 4): 370 ± 87 mg
Reduction in body weight at the end of the experiment compared to before administration ([1]; CPT-11 80 mg/kg): 16.00%
T/C (%) RTV ([1]; CPT-11 80 mg/kg iv QW × 4): 16%
T/C (%) TW ([1]; CPT-11 80 mg/kg iv QW × 4): 12%
RTV ([1]; CPT-11 80 mg/kg iv QW × 4): 1.95 ± 0.31
Tumor Weight ([1]; CPT-11 80 mg/kg iv QW × 4): 173 ± 34 mg
Tumor Inhibition Rate [2]: 71%
RTV (D 41) ([3]; 60 mg/kg): 4.69 ± 1.12
T/C (%) RTV ([3]; 60 mg/kg): 28%
T/C (%) TW ([3]; 60 mg/kg): 27%
Tumor Weight (mg) (D 41) ([3]; 60 mg/kg): 465 ± 91 mg
RTV (D 41) ([3]; 80 mg/kg): 5.95 ± 1.22
T/C (%) RTV ([3]; 80 mg/kg): 36%
T/C (%) TW ([3]; 80 mg/kg): 28%
Tumor Weight (mg) (D 41) ([3]; 80 mg/kg): 495 ± 91 mg
Body weight reduction at the end of the experiment compared with before administration ([3]; CPT-11 high dose (80 mg/kg)): 5.810%
Body weight reduction at the end of the experiment compared with before administration ([3]; CPT-11 low dose (60 mg/kg)): 0.99%
T/C (%) RTV ([4]; CPT-11 60 mg/kg iv QW × 4): 64%
T/C (%) TW ([4]; CPT-11 60 mg/kg iv QW × 4): 67%
RTV ([4]; CPT-11 60 mg/kg iv QW × 4): 9.20 ± 0.79
Tumor Weight ([4]; CPT-11 60 mg/kg iv QW × 4): 1179 ± 150 mg
T/C (%) RTV ([4]; CPT-11 80 mg/kg iv QW × 4): 79%
T/C (%) TW ([4]; CPT-11 80 mg/kg iv QW × 4): 95%
RTV [4, 7]: 11.44 ± 0.21
Tumor Weight [4, 7]: 1664 ± 258 mg
Animals died ([4]; CPT-11 80 mg/kg, 8 animals): 6
Body weight increase at the end of the experiment ([4]; CPT-11 high dose (80 mg/kg), two living animals): 11.94%
Body weight increase at the end of the experiment ([4]; CPT-11 low dose (60 mg/kg)): 6.97%
Animal death ([5]; CPT-11 60 mg/kg): No animal died
T/C (%) RTV ([5]; CPT-11 60 mg/kg iv QW × 3): 24%
T/C (%) TW ([5]; CPT-11 60 mg/kg iv QW × 3): 28%
RTV ([5]; CPT-11 60 mg/kg iv QW × 3, D33): 4.59 ± 1.04
T/C (%) RTV ([5]; CPT-11 80 mg/kg iv QW × 3): 13%
T/C (%) TW ([5]; CPT-11 80 mg/kg iv QW × 3): 16%
RTV ([5]; CPT-11 80 mg/kg iv QW × 3, D33): 2.46 ± 0.41
Tumor Weight ([5]; CPT-11 80 mg/kg iv QW × 3, D33): 391 ± 143 mg
Animal death ([5]; CPT-11 80 mg/kg, 7 animals): one animal died
Body weight increase compared with before administration ([5]; 60 mg/kg): 2.41%
Body weight increase compared with before administration ([5]; 80 mg/kg): 1.950%
T/C (%) TV [6]: 8%
T/C (%) TW [6]: 7%
TW (mg) (mean ± SEM) [6]: 99 ± 43 mg
Body Weight (g, mean ± SEM) Day 11 ([6]; Day 11): 18.5 ± 0.6 g
TV (mm^3) Day 11 (mean ± SEM) ([6]; Day 11): 157 ± 18 mm^3
Body Weight (g, mean ± SEM) Day 39 ([6]; Day 39): 19.2 ± 0.7 g
TV (mm^3) Day 39 (mean ± SEM) ([6]; Day 39): 154 ± 57 mm^3
Body Weight Change (%) ([6]; Day 39 vs Day 11): +3.8%

CCc1c2c(nc3ccc(O)cc13)-c1cc3c(c(=O)n1C2)COC(=O)[C@]3(O)CC [SN-38, 7-ethyl-10-hydroxycamptothecin]
Efficacy on some tumor cells relative to CPT-11 (tumor cells): 100-1000 times
